One block for each molecule: values may come before it.
Test: logP by HPLC on reversed-phase column (C 18), EEC Directive 79/B31 Annex V.A8, methods A and B
Assay type: physicochemical
Details: reversed-phase HPLC column (C 18)
Description: Calibration was carried out using unbranched alkan-2-ones (having 3 to 16 carbon atoms) with known logP values (determination of the logP values by the retention times using linear interpolation between two successive alkanones).

[1] = LogP method A: HPLC reversed-phase C 18, 43° C., 0.1% aqueous phosphoric acid / acetonitrile, linear gradient 10% to 90% acetonitrile
[2] = LogP method B: HPLC reversed-phase C 18, 40° C., 0.1% aqueous formic acid / acetonitrile, linear gradient 10% to 90% acetonitrile
[3] = Method B: 40° C., 0.1% aqueous formic acid and acetonitrile
[4] = HPLC reversed-phase C 18, method A: 43° C., 0.1% aqueous phosphoric acid, acetonitrile, linear gradient 10% to 90% acetonitrile
[5] = HPLC reversed-phase C 18, method B: 40° C., 0.1% aqueous formic acid and acetonitrile, linear gradient 10% to 90% acetonitrile

SMILES: Cc1nn(C)c(Oc2cccc(O)c2)c1C(=O)N(C1CC1)S(=O)(=O)c1ccc(O)c(O)c1 [Compound 405]
chromatographic logP [1]: 4.46

SMILES: Cn1ncc(I)c1C(=O)N(C1CC1)S(=O)(=O)c1ccc(O)c(O)c1O [Compound 663]
chromatographic logP [2]: 3.4

SMILES: COc1nn(C)cc1C(=O)N(C1CC1)S(=O)(=O)c1c(O)cc(Cl)cc1O [Compound 461]
chromatographic logP [2]: 2.7

SMILES: COC(=O)C1(N(C(=O)c2c(C(F)(F)F)nn(C)c2F)S(=O)(=O)c2ccc(O)c(O)c2O)CC1 [Compound 667]
chromatographic logP [3]: 4.04

SMILES: CCc1c(C(=O)N(C2CC2)S(=O)(=O)c2ccc(Cl)c(C(F)(F)F)c2)sc(=O)n1C1CC1 [Compound 629]
chromatographic logP [1]: 3.01

SMILES: Cc1oncc1C(=O)N(C1CC1)S(=O)(=O)c1ccc(Oc2ccc(Br)cc2)cc1 [Compound 605]
chromatographic logP [2]: 3.4

SMILES: CCCCCc1ccc(Oc2ccc(S(=O)(=O)N(C(=O)c3cn(C)nc3OC)C3CC3)c(Br)c2)cc1 [Compound 482]
chromatographic logP [2]: 5.4

SMILES: Cc1nn(C)c(F)c1C(=O)N(C1CC1)S(=O)(=O)c1ccccc1[N+](=O)[O-] [Compound 202]
chromatographic logP [4]: 2.25

SMILES: O=C(C1=C(C(F)(F)F)OCCS1)N(C1CC1)S(=O)(=O)c1ccccc1O [Compound 653]
chromatographic logP [1]: 3.2

SMILES: CCCOc1nn(C)cc1C(=O)N(C1CC1)S(=O)(=O)c1ccc(Oc2ccc(C)nc2)cc1Br [Compound 285]
chromatographic logP [5]: 2.7

SMILES: CCc1nn(C)c(F)c1C(=O)N(C1CC1)S(=O)(=O)c1c(O)sc(O)c1O [Compound 437]
chromatographic logP [2]: 3.85

SMILES: CCOc1nn(C)cc1C(=O)N(C1CC1)S(=O)(=O)c1ccc(Oc2ccc(Cl)c(C(F)(F)F)c2)cc1Br [Compound 553]
chromatographic logP [2]: 4.5

SMILES: CCCOc1nn(C)cc1C(=O)N(C1CC1)S(=O)(=O)c1ccc(Oc2ccc(O)cc2Cl)cc1Br [Compound 301]
chromatographic logP [5]: 4.9

SMILES: CCOC(=O)c1[nH]c(C)c(C(=O)N(C2CC2)S(=O)(=O)c2cccc(O)c2)c1C [Compound 29]
chromatographic logP [4]: 3.46

SMILES: CCc1onc(C(C)C)c1C(=O)N(C1CC1)S(=O)(=O)c1ccc(O)c(O)c1 [Compound 595]
chromatographic logP [1]: 4.77

SMILES: COc1nn(C)cc1C(=O)N(C1CC1)S(=O)(=O)c1ccccc1C(F)(F)F [Compound 460]
chromatographic logP [2]: 2.3

SMILES: Cc1cc(C(=O)N(C2CC2)S(=O)(=O)c2ccc(Oc3ccc(Br)cc3)cc2)nn1C [Compound 77]
chromatographic logP [5]: 4

SMILES: COc1cscc1C(=O)N(C1CC1)S(=O)(=O)c1ccc(O)c(O)c1O [Compound 27]
chromatographic logP [5]: 3.9

SMILES: CC(F)c1nn(C)cc1C(=O)N(C1CC1)S(=O)(=O)c1ccc(Oc2ccccc2)cc1 (stereo not drawn) [Compound 121]
chromatographic logP [5]: 3.5

SMILES: Cc1nn(C)c(F)c1C(=O)N(C1(c2ccccc2)CC1)S(=O)(=O)c1cccc(O)c1O [Compound 670]
chromatographic logP [3]: 4.1

SMILES: Cc1cc(C(=O)N(C2CC2)S(=O)(=O)c2ccc(Oc3ccc(Br)cc3)cc2)c(C)o1 [Compound 7]
chromatographic logP [5]: 4.9

SMILES: Cc1noc(C)c1C(=O)N(C1CC1)S(=O)(=O)c1ccc(O)cc1O [Compound 592]
chromatographic logP [1]: 3.41

SMILES: CCc1onc(C(C)C)c1C(=O)N(C1CC1)S(=O)(=O)c1ccc(C(C)(C)C)cc1 [Compound 597]
chromatographic logP [1]: 4.98

SMILES: Cc1nn(C)c(O)c1C(=O)N(C1CC1)S(=O)(=O)c1ccc(O)c(C(F)(F)F)c1 [Compound 406]
chromatographic logP [1]: 3.76

SMILES: CCc1nn(C)c(F)c1C(=O)N(C1CC1)S(=O)(=O)c1cc(C(F)(F)F)ccc1O [Compound 384]
chromatographic logP [5]: 3.5

SMILES: COc1ccccc1S(=O)(=O)N(C(=O)c1c(C)nn(C)c1F)C1CC1 [Compound 182]
chromatographic logP [4]: 2.06

SMILES: Cc1c(C(=O)N(C2CC2)S(=O)(=O)c2cccc(Cl)c2)sc(=O)n1C [Compound 611]
chromatographic logP [1]: 1.01

SMILES: COc1cscc1C(=O)N(C1CC1)S(=O)(=O)c1cccc(O)c1O [Compound 25]
chromatographic logP [5]: 3.3

SMILES: Cc1n[nH]c(C)c1C(=O)N(C1CC1)S(=O)(=O)c1cccc(Cl)c1 [Compound 401]
chromatographic logP [1]: 2.45

SMILES: O=C(c1cccnc1O)N(C1CC1)S(=O)(=O)c1ccc(Oc2ccc(Br)cc2)cc1 [Compound 648]
chromatographic logP [2]: 4.3

SMILES: Cc1nn(C)c(F)c1C(=O)N(C1CC1)S(=O)(=O)c1cnc(O)c(Br)c1 [Compound 447]
chromatographic logP [1]: 3.08

SMILES: CCc1c(C(=O)N(C2CC2)S(=O)(=O)c2ccc(O)cc2O)sc(=O)n1C1CC1 [Compound 631]
chromatographic logP [1]: 2.01

SMILES: Cc1n[nH]c(C)c1C(=O)N(C1CC1)S(=O)(=O)c1ccc(O)c(O)c1 [Compound 409]
chromatographic logP [1]: 2.74

SMILES: Cn1nc(C(F)F)c(C(=O)N(C2CC2)S(=O)(=O)c2ccc(O)cc2O)c1F [Compound 105]
chromatographic logP [5]: 3.4

SMILES: COc1nn(C)c(O)c1C(=O)N(C1CC1)S(=O)(=O)c1ccc(Oc2ccccc2)cc1 [Compound 280]
chromatographic logP [5]: 3.8

SMILES: CC(C)c1nn(C)c(F)c1C(=O)N(C1CC1)S(=O)(=O)c1ccc(O)cc1O [Compound 96]
chromatographic logP [5]: 3.8

The remaining lines, values ahead:

chromatographic logP [4]: 2.91
SMILES: Cc1ncc(C(=O)N(C2CC2)S(=O)(=O)c2ccc(O)cc2O)s1 [Compound 64]

chromatographic logP [1]: 3.01
SMILES: CC(C)c1c(C(=O)N(C2CC2)S(=O)(=O)c2ccc(C(C)(C)C)cc2)sc(=O)n1C1CC1 [Compound 636]

chromatographic logP [2]: 3.8
SMILES: COc1nn(C)cc1C(=O)N(C1CC1)S(=O)(=O)c1ccc(Oc2cccc(C(F)(F)F)c2)cc1Br [Compound 472]

chromatographic logP [2]: 3.3
SMILES: COc1ccc(Oc2ccc(S(=O)(=O)N(C(=O)c3cn(C)nc3OC)C3CC3)c(Br)c2)cc1 [Compound 463]

chromatographic logP [5]: 3.4
SMILES: CCc1nn(C)c(F)c1C(=O)N(C1CC1)S(=O)(=O)c1ccc(Br)cc1O [Compound 385]

chromatographic logP [2]: 3.6
SMILES: Cc1nocc1C(=O)N(C1CC1)S(=O)(=O)c1ccc(O)c(O)c1O [Compound 600]

chromatographic logP (Method A: 43° C., 0.1% aqueous phosphoric acid, acetonitrile): 4.44
SMILES: Cc1nn(C)c(F)c1C(=O)N(C1(c2ccc(O)cc2)CC1)S(=O)(=O)c1cccc(O)c1O [Compound 669]

chromatographic logP [4]: 3.46
SMILES: Cc1ncc(C(=O)N(C2CC2)S(=O)(=O)c2ccc(O)c(C(F)(F)F)c2)s1 [Compound 62]

chromatographic logP [4]: 2.58
SMILES: Cc1nn(C)c(O)c1C(=O)N(C1CC1)S(=O)(=O)c1ccccc1O [Compound 199]

chromatographic logP [1]: 4.41
SMILES: CCc1onc(C(C)C)c1C(=O)N(C1CC1)S(=O)(=O)c1ccc(O)cc1O [Compound 596]

chromatographic logP [4]: 3.72
SMILES: CCOC(=O)c1[nH]c(C)c(C(=O)N(C2CC2)S(=O)(=O)c2ccc(C(F)(F)F)cc2)c1C [Compound 30]

chromatographic logP [5]: 4.5
SMILES: CCCOc1nn(C)cc1C(=O)N(C1CC1)S(=O)(=O)c1ccc(Oc2cccc(O)c2)cc1Br [Compound 296]

chromatographic logP [5]: 3.1
SMILES: Cn1nc(C(F)(F)F)c(C(=O)N(C2CC2)S(=O)(=O)c2ccccc2C(F)(F)F)c1F [Compound 364]

chromatographic logP [5]: 4.4
SMILES: Cc1cc(C(=O)N(C2CC2)S(=O)(=O)c2ccc(O)c(O)c2O)c(C)o1 [Compound 6]

chromatographic logP [5]: 3.9
SMILES: Cn1nc(C(F)(F)F)c(C(=O)N(C2CC2)S(=O)(=O)c2c(O)cc(C(F)(F)F)cc2O)c1F [Compound 373]

chromatographic logP [5]: 3.4
SMILES: CC(F)c1nn(C)cc1C(=O)N(C1CC1)S(=O)(=O)c1ccc(O)c(O)c1O (stereo not drawn) [Compound 120]

chromatographic logP [5]: 4.1
SMILES: CCCOc1nn(C)cc1C(=O)N(C1CC1)S(=O)(=O)c1ccc(Oc2ccccc2)cc1Br [Compound 290]

chromatographic logP [2]: 4.1
SMILES: COc1nn(C)cc1C(=O)N(C1CC1)S(=O)(=O)c1ccc(Oc2ccc(O)cc2Cl)cc1Br [Compound 477]

From patent US7932283B2, “Fungicide N-cyclopropyl-sulfonylamide derivatives” (Bayer Cropscience AG, priority 2006, dated 2011)
